Test results published in ChEMBL document CHEMBL1201862, “PubChem BioAssay data set” (2004).
The source made the active and inactive calls.

What was measured:
[1] = HEK293 Cytotoxicity Assay Measured in Cell-Based System Using Plate Reader - 7071-01_Inhibitor_Dose_CherryPick_Activity_Set2.; type: functional
HEK293 = assay: viability loss in HEK293T cells – cell-based, ATP luminescence, cherry-pick samples, cytotoxicity control, dose response (AID 687005); type: functional; details: Homo sapiens;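 also: cells exposed to compound for 48 hours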
HeLa = assay: viability loss in HeLa cells – cell-based, ATP luminescence, cherry-pick samples, cytotoxicity control, dose response (AID 687004); type: functional; details: Homo sapiens
[2] = biological target: T1, Oxysterols receptor LXR-beta (Homo sapiens, UniProt P55055); assay: LXR agonists, Gal4 luciferase reporter, dose response, counter-screen for ssDAF-12 agonist project, cell-based, luminescence, HEK293, S. stercoralis campaign (AID 720737); type: functional; details: read-out: IC50 (the source's name)
T1 sequence (P55055 whole entry): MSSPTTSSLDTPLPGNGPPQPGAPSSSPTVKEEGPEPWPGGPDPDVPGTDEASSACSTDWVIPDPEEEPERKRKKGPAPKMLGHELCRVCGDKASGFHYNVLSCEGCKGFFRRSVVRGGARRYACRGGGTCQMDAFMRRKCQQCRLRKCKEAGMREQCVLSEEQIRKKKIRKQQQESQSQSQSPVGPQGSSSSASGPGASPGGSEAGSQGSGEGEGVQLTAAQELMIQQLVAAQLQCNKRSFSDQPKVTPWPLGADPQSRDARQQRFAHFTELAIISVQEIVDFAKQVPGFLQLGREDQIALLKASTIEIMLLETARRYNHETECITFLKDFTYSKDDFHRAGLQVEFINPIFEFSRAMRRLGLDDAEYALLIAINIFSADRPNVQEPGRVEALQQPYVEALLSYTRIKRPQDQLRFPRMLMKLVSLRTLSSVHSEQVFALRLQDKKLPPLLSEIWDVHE

[3] = Luminescence-based cell-based high throughput dose response assay to identify activators of the DAF-12 from the parasite S. stercoralis (ssDAF-12).; type: functional
[4] = biological target: T1, Oxysterols receptor LXR-beta; type: functional, cell-based
[5] = A549 cell cytotoxicity, dose response, cytotoxicity control, plate reader, cherry-pick, antagonist series (AID 743412); type: functional, cell-based
[6] = toxicity toward HepG2 liver cells – cell-based, plate reader, cherry-pick, antagonist series, cytotoxicity control, dose response (AID 743416); type: functional
Cytochrome P450 2D6 = Cytochrome P450 2D6 (Homo sapiens, UniProt P10635);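 also: CYP2D6 member of a cytochrome P450 panel assay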
Cytochrome P450 2D6, sequence (P10635 whole entry): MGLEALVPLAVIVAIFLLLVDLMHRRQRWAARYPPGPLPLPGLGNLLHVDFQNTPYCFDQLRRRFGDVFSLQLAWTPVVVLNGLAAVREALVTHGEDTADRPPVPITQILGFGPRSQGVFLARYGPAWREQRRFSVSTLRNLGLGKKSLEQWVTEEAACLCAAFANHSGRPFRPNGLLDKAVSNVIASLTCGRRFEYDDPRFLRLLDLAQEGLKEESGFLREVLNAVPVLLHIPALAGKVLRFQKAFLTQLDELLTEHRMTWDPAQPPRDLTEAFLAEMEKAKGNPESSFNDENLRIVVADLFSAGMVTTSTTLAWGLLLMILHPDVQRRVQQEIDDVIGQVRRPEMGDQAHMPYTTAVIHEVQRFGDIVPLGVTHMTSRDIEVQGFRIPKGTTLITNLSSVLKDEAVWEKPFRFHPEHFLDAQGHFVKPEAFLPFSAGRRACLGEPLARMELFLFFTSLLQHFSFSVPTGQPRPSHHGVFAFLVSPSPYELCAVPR

Cytochrome P450 2C19 = Cytochrome P450 2C19 (Homo sapiens, UniProt P33261); assay: Cytochrome panel assay with activity outcomes. Panel member name: p450-cyp2c19 Compounds with AC50 equal or less than 10 uM are considered active; type: functional; details: read-out: AC50
Cytochrome P450 2C19, sequence (P33261 whole entry): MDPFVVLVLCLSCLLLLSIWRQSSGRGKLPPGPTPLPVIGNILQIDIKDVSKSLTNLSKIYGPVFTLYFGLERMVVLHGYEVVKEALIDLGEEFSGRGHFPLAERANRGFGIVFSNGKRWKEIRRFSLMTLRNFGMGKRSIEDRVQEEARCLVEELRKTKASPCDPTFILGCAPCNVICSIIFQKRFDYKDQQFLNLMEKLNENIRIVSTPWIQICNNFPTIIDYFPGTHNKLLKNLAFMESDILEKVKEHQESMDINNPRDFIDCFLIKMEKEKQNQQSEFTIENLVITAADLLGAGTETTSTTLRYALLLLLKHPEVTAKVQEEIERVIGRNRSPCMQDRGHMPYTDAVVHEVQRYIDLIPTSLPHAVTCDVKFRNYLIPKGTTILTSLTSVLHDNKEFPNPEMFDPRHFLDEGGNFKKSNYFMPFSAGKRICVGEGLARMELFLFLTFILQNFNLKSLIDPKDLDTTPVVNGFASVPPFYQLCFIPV

[7] = biological target: Peroxisome proliferator-activated receptor gamma/Nuclear receptor coactivator 1 (Homo sapiens, UniProt P37231); type: functional;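 also: agonist potency as compounds enhance coactivator SRC-1 recruitment to PPARgamma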
[8] = blockade of melanocortin 4 receptor signaling – cell-based, plate reader, cherry pick, counter-screen for LGR2 antagonist project, dose response (AID 743444); type: functional;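 also: transfected HEK 293 cells stimulated with alpha-MSH peptide; potency of inhibitors of the alpha-MSH evoked signal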
[9] = biological target: Peroxisome proliferator-activated receptor gamma/Nuclear receptor coactivator 3 (Homo sapiens, UniProt P37231); type: functional;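 also: agonist potency for raising coactivator recruitment to the receptor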
[10] = biological target: Peroxisome proliferator-activated receptor gamma/Nuclear receptor coactivator 2 (Homo sapiens, UniProt P37231); type: functional;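 also: agonist potency for raising coactivator recruitment to the receptor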
Peroxisome proliferator-activated receptor gamma/Nuclear receptor coactivator 2, sequence (P37231 whole entry): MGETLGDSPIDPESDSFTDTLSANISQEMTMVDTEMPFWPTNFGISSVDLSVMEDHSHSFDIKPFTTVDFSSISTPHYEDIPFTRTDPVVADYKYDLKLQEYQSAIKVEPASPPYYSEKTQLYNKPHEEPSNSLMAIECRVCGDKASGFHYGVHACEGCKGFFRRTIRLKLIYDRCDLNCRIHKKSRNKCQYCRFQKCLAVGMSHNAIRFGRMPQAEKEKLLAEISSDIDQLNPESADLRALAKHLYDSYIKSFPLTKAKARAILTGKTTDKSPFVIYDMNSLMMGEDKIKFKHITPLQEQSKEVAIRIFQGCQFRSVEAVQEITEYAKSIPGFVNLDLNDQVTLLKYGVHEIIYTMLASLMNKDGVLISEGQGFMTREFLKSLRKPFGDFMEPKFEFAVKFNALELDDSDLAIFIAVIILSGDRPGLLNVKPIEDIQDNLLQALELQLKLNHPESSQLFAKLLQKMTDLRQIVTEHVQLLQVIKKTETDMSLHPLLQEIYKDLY
Peroxisome proliferator-activated receptor gamma/Nuclear receptor coactivator 2, sequence (Q15596 whole entry, further chain): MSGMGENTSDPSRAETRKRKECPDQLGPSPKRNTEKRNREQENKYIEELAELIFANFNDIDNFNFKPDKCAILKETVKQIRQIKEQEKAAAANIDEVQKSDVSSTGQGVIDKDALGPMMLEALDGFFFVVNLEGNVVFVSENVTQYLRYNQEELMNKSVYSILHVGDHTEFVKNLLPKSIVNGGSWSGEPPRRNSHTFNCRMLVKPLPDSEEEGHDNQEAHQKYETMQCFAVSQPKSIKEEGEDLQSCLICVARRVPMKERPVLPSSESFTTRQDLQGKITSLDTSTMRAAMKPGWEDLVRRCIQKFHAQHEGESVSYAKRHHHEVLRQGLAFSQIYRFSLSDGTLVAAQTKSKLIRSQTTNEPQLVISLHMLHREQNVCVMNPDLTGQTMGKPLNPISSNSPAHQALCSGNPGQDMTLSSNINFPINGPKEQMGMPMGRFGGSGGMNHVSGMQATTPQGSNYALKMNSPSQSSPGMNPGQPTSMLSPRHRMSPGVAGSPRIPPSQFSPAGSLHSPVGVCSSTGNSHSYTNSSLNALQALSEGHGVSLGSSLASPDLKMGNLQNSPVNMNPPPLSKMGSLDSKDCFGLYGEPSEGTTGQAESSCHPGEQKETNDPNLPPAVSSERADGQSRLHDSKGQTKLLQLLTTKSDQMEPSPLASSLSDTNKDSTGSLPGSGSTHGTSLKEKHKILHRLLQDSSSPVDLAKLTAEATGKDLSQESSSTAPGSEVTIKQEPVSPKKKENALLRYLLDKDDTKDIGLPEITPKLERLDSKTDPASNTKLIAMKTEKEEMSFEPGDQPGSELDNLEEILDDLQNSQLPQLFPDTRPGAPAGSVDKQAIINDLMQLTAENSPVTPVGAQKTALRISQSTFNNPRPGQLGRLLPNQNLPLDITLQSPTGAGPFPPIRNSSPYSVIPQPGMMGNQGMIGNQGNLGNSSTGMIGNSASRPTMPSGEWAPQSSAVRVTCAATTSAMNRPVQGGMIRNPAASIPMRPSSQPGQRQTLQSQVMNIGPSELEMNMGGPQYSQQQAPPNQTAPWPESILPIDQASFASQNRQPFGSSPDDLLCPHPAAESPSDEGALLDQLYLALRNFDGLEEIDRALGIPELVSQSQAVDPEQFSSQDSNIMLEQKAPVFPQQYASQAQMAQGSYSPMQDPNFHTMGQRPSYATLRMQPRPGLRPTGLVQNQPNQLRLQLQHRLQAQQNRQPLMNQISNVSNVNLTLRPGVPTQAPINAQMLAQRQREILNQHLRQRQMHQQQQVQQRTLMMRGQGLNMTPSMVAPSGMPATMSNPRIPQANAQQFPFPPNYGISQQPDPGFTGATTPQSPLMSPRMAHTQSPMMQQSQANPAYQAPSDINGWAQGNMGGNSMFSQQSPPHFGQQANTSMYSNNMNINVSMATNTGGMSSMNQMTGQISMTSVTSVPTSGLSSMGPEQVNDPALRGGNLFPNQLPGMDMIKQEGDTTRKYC

[11] = blockers of bursicon-stimulated LGR2 cAMP reporter – cell-based, HEK293, CRE-luciferase reporter, cherry pick, set 2, dose response (AID 743343); type: functional;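 also: transfected cells were stimulated with diluted bursicon conditioned medium after compound addition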
Caspase-3 = biological target: T2, Caspase-3 (Homo sapiens, UniProt P42574); type: functional;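 also: Dose-response selectivity test against caspase-3 for candidate inhibitors of sentrin-specific proteases (SENPs)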
T2 sequence (P42574 whole entry): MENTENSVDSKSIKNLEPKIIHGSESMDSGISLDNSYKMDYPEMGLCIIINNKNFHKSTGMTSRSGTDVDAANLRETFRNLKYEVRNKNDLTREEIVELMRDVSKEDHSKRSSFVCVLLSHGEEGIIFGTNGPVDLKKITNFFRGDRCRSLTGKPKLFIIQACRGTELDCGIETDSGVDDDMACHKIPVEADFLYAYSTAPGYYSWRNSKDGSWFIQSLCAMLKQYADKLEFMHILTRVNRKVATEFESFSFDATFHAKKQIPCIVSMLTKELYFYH

[12] = biological target: T3, Sentrin-specific protease 8 (Homo sapiens, UniProt Q96LD8); type: functional;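 also: luminescence read-out of SENP8 inhibition, dose-response confirmation following an ultra-high-throughput screen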
T3 sequence (Q96LD8 whole entry): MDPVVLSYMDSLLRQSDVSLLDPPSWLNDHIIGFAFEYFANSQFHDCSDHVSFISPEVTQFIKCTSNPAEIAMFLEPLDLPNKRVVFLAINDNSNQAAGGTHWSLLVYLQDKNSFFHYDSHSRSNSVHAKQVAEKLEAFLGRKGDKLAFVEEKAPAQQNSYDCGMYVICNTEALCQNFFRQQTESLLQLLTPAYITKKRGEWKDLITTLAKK

[13] = biological target: T4, Sentrin-specific protease 6 (Homo sapiens, UniProt Q9GZR1); type: functional;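 also: Luminescence-based dose-response confirmatory assay of SENP6 inhibition, following up an ultra-high-throughput screen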
T4 sequence (Q9GZR1 whole entry): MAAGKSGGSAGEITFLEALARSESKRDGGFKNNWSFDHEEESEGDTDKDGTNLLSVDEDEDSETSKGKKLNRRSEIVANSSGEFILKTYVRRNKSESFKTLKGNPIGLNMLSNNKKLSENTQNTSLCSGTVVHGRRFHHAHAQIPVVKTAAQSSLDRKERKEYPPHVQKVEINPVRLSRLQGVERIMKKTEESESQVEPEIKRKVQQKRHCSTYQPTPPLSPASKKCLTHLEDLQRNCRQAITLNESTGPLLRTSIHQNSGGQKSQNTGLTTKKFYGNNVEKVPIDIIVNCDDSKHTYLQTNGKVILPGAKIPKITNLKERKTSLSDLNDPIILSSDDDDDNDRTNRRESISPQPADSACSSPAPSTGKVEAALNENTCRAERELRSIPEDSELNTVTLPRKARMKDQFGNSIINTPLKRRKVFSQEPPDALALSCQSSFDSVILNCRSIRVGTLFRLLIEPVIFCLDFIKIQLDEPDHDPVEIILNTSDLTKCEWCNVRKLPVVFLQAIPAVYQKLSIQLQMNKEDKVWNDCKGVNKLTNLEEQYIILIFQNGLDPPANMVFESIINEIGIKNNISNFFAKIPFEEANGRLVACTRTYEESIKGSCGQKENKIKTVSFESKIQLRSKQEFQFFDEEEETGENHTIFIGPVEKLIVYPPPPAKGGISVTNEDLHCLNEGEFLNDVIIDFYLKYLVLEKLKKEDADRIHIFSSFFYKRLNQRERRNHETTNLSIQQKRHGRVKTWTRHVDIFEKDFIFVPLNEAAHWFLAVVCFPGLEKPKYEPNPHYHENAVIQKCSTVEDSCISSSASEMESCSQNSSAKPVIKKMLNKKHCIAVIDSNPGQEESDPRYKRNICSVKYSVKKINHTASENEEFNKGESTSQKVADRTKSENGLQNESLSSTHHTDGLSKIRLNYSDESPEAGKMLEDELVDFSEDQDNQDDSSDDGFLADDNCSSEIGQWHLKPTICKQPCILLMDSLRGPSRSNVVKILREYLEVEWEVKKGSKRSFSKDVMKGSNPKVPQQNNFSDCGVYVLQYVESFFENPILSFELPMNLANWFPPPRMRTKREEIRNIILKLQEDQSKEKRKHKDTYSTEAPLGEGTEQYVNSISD

[14] = biological target: NAD-dependent protein deacylase sirtuin-5, mitochondrial (Homo sapiens, UniProt Q9NXA8); assay: sirtuin-5 deacylation blockers, concentration series – biochemical, fluorescence imaging, cherry-pick, set 5, dose response (AID 720591);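 also: desuccinylation of succinyl peptide AMC substrate read as fluorescence after trypsin release; potency of inhibitors that lower fluorescence and may act on trypsin instead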
NAD-dependent protein deacylase sirtuin-5, mitochondrial, sequence (Q9NXA8 whole entry): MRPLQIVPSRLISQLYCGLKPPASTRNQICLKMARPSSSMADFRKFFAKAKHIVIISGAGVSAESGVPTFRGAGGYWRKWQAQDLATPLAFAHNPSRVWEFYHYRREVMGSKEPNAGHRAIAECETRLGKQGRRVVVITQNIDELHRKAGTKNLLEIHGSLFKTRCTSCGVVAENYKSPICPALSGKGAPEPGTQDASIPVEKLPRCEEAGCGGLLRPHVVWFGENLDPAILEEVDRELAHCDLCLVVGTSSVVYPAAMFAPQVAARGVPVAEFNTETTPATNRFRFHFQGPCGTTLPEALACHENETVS

[15] = biological target: T5, Sentrin-specific protease 7 (Homo sapiens, UniProt Q9BQF6); type: functional;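 also: Luminescence-based dose-response confirmation of ultra-high-throughput screening hits, measuring inhibition of SENP7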
T5 sequence (Q9BQF6 whole entry): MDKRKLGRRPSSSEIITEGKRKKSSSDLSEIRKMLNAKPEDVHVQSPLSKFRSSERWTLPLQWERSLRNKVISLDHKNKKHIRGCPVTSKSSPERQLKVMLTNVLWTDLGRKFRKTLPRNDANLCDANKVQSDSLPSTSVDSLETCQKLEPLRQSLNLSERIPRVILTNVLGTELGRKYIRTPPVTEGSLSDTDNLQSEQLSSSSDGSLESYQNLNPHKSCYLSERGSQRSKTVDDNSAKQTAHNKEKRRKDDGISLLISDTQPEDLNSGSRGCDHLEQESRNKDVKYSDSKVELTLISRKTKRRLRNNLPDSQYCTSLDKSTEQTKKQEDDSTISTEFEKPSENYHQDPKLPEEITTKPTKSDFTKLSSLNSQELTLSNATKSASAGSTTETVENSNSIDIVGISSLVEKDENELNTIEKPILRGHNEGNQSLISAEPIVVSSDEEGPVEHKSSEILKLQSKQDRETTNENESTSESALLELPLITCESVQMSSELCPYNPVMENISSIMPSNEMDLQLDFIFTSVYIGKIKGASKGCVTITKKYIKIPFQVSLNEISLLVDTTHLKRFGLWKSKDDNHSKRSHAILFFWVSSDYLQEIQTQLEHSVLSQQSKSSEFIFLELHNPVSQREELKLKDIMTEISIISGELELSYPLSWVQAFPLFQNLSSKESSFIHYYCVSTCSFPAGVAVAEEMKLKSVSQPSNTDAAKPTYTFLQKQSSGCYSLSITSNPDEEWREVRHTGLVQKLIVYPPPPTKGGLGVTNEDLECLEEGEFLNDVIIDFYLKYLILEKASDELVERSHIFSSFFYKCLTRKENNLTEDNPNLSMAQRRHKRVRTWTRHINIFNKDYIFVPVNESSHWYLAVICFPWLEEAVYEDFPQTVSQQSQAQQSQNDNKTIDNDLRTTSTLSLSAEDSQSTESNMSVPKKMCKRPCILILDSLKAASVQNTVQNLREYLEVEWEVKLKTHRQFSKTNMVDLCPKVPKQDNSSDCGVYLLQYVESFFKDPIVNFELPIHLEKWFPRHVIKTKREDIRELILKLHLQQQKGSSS

[16] = Late stage counterscreen for inhibitors of Trypanosoma brucei methionyl tRNA synthetase (MetRS): Luminescence-based cell-based high throughput dose response assay to identify compounds that are cytotoxic to Jurkat human T lymphocyte cells.; type: functional
[17] = biological target: T6, Methionyl-tRNA synthetase, putative (Trypanosoma brucei brucei, UniProt Q38C91); type: functional, Trypanosoma brucei brucei strain 927/4 GUTat10.1
T6 sequence (Q38C91 whole entry): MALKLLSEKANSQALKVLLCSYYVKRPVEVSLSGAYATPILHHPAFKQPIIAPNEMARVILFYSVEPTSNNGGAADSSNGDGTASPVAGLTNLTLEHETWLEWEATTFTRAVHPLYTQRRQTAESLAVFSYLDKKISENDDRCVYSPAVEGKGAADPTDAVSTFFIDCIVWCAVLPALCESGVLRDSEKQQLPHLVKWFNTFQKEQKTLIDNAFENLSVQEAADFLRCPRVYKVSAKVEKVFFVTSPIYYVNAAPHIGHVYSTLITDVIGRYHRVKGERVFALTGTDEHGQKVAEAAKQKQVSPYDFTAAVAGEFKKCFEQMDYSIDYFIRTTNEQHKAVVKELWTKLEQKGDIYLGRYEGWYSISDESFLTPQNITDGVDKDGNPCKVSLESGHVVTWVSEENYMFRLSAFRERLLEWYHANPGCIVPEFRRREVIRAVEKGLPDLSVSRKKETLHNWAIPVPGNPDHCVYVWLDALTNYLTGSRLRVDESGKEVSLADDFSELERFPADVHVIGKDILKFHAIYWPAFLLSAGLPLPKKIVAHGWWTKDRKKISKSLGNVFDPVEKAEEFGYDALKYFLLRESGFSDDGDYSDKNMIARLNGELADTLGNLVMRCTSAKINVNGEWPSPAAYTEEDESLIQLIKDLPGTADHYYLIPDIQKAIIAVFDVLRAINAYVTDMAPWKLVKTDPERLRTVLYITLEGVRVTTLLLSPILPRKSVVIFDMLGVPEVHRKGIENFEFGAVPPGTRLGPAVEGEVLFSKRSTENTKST

[18] = Counterscreen for inhibitors of Trypanosoma brucei methionyl tRNA synthetase (MetRS): Luminescence-based cell-based high throughput dose response assay to identify compounds that are cytotoxic to Jurkat human T lymphocyte cells.; type: functional
[19] = biological target: T6, Methionyl-tRNA synthetase, putative; type: functional, Trypanosoma brucei brucei strain 927/4 GUTat10.1; remark: listed apart in the source

Compound: Cc1ccc(N=C(S)Nc2ccc(Cl)c(Cl)c2)c(OC(F)F)c1
- AC50 [1]: 26.6 µM (active)
- AC50 (HEK293): 26.6 µM (active)
- AC50 (HeLa): 29.9 µM (active)

Compound: CC(=O)NC(=S)Nc1ccccc1C(=O)NC1CCCCC1
- EC50 [2]: > 67.6 µM (inactive)
- IC50 [3]: > 67.6 µM (inactive)

Compound: O=C(CCNC(=O)c1ccccc1Cl)Nc1ccc(Br)c(C(F)(F)F)c1
- EC50 [2]: > 67.5 µM (inactive)
- IC50 [3]: > 67.5 µM (inactive)

Compound: NNc1nc(-c2ccccc2)nc2sc3c(c12)CCCC3
- EC50 (cells): > 67.5 µM (inactive)
- EC50 [4]: > 67.5 µM (inactive)

Compound: Cc1ccc(NC(=O)c2sc3ccccc3c2Cl)nc1
- EC50 (cells): > 67.5 µM (inactive)
- AC50 [5]: 50.8 µM (active)
- AC50 [6]: > 52 µM (inactive)
- AC50 (Cytochrome P450 2D6): 3.16 µM (inconclusive)
- AC50 (Cytochrome P450 2C19): 7.94 µM (inconclusive)
- EC50 [4]: > 67.5 µM (inactive)
- EC50 [7]: 53.2 µM (not active)
- AC50 [8]: 3.36 µM (active)
- EC50 [9]: 52 µM (not active)
- EC50 [10]: 41.5 µM (not active)
- AC50 [11]: 2.52 µM (active)

Compound: Cc1c(NC(=O)c2ccc(NC(=O)C3CC3)cc2)cccc1C(=O)O
- IC50 (Caspase-3): 43.8 µM (active)
- IC50 [12]: 25.8 µM (active)
- IC50 [13]: 18.5 µM (active)
- AC50 [14]: 10.7 µM (active)
- IC50 [15]: 6.21 µM (active)

Compound: COC(=O)[C@]12CCCCC=C1N(Cc1ccc(Cl)cc1Cl)C(=O)[C@H](CC(=O)NCc1cccc(C(F)(F)F)c1)C2
- AC50 [14]: > 30 µM (inactive)

Compound: C[C@@H]1CCCCO[C@@H](CN(C)S(=O)(=O)c2ccc(F)cc2)[C@@H](C)CN([C@@H](C)CO)C(=O)c2cc(NS(=O)(=O)c3ccc(F)cc3)ccc2O1
- AC50 [1]: 17.1 µM (active)
- AC50 (HEK293): 17.1 µM (active)

Compound: O=C(NCc1nc2ccccc2[nH]1)C1=C[C@H](c2ccc(Br)cc2)C[C@H](OCCCCO)O1
- IC50 [16]: 66.7 µM (inactive)

Compound: CCOC(=O)N1CCC(Nc2c(Nc3ccc(F)cc3)c(=O)c2=O)CC1
- IC50 [17]: 7.98 µM (active)
- IC50 [16]: > 83.3 µM (inactive)
- IC50 [18]: 83.3 µM (inactive)
- IC50 [19]: 4.36 µM (active)
